Measured values taken from US20150164824A1, “METHODS AND COMPOSITIONS USEFUL FOR IMPROVING BONE AND JOINT HEALTH” (ABBOTT LABORATORIES, priority 2012, published 2015).

Tests used:
[1] = system: Human osteoclast precursors; assay: OsteoLyse assay: osteoclast differentiation and collagen degradation in vitro; assay type: cell-based; settings: relative to standard control wells (100%); day seven of culture; FIG. 1
Protocol: A 96-well OsteoLyse™ assay system (commercially available from Lonza Biosciences, Walkersville, Md.) was used for this evaluation. Specifically, a 96-well OsteoLyse™ plate was coated with fluorophore-derivatized human bone matrix (europium conjugated collagen). Human osteoclast precursors, at a density of 10,000/200 μl of differentiation medium (containing M-CSF and RANK Ligand) were seeded onto the surface of the plate. Triplicate cell culture wells were treated with one of: Curcumin in DMSO; Vitamin K2 in ethanol; combination of Curcumin and Vitamin K2; and alendronate (control). Cell culture wells with only differentiation medium were treated as standard control wells. After six days of culture, old medium was removed and 200 μl of fresh differentiation medium was added to all wells. Twenty-four hours later, on day seven of culture, 10 μl of medium supernatant was used for fluorescence measurement. For the measurement, 10 μl of medium supernatant was added to 100 μl of fluorophore-releasing agent (Lonza Bioscience, Walkersville, Md.) in a black-walled 96-well plate. The samples were briefly mixed and fluorescence was determined using a time-resolved fluorescence fluorimeter (Spectramax M5, available from Molecular Devices, Sunnyvale, Calif., with excitation at 340 nm and emission at 615 nm) over a 400-microsecond time period after an initial delay of 400 microseconds. Osteoclast differentiation in a standard control cell culture well was assumed to be 100% and relative osteoclast differentiation, with respect to control wells, in other cell culture wells was calculated and plotted on the bar graph shown in FIG. 1.

[2] = system: Primary human osteoclast precursors; assay: OsteoAssay plate / CalciFluor assay: bone resorption by osteoclasts; assay type: cell-based; settings: relative to standard control cells; calcium release, day eight of culture; FIG. 2
Protocol: A 96-well OsteoAssay™ plate (commercially available from Lonza Biosciences, Walkersville, Md.) was used for this evaluation. Specially, a 96-well OsteoAssay™ plate was coated with a thin-layer of adherent human bone particles. Primary human osteoclast precursors, at a density of 10,000/200 μl of differentiation medium (containing M-CSF and RANK Ligand), were seeded onto the surface of the plate. Triplicate cell culture wells were treated with one of: Curcumin in DMSO; Vitamin K2 in ethanol; combination of Curcumin and Vitamin K2; and alendronate (control). Cell culture wells with only differentiation medium were treated as standard control wells. After six days of culture, old medium was removed and 200 μl of fresh basal resorption medium containing M-CSF and RANK Ligand was added to all wells. Forty-eight hours later, on day eight of culture, 10 μl of medium supernatant was used for calcifluor assay. […] The samples were briefly mixed and fluorescence was determined using a fluorimeter (Spectramax M5, available from Molecular Devices, Sunnyvale, Calif., with excitation at 551 nm and emission at 577 nm). The concentration of calcium in each well was calculated based on the standard curve. […] The relative percentage inhibition of bone resorption, with respect to standard control cells, was calculated and plotted on the bar graph as shown in FIG. 2.

Compound | inhibition of osteoclast differentiation [1] | inhibition of bone resorption [2] [%]
menaquinone [Vitamin K2] | did not significantly inhibit | 31.9
COc1cc(/C=C/C(=O)CC(=O)/C=C/c2ccc(O)c(OC)c2)ccc1O [Curcumin, (1E,6E)-1,7-bis(4-hydroxy-3-methoxyphenyl)-1,6-heptadiene-3,5-dione] | did not significantly inhibit | 39.7
NCCCC(O)(P(=O)(O)O)P(=O)(O)O [Alendronate, reference compound] | 53.6% | 
